Measurements from article PMC9684580, “The BDSF quorum sensing receptor RpfR regulates Bep exopolysaccharide synthesis in Burkholderia cenocepacia via interaction with the transcriptional regulator BerB” (NPJ Biofilms and Microbiomes, 2022).

Assays:
[1] = target: T1, RpfR (Burkholderia cenocepacia, UniProt B4EKM4); experiment: DGC assay, products by anion-exchange FPLC (ResourceQ); assay type: biochemical; settings: 2 uM enzyme, 100 uM substrate, 50 mM Tris-Cl pH 7.8, 500 mM NaCl, 2 mM MgCl2, 37 °C, 180 min; product pGpG
T1 construct: gene BCAM0580; full-length rpfR in pQE-32 (BamHI/HindIII; vector with N-terminal His tag), expressed in E. coli M15[pREP4], purified
T1 sequence (B4EKM4 entry or part of it): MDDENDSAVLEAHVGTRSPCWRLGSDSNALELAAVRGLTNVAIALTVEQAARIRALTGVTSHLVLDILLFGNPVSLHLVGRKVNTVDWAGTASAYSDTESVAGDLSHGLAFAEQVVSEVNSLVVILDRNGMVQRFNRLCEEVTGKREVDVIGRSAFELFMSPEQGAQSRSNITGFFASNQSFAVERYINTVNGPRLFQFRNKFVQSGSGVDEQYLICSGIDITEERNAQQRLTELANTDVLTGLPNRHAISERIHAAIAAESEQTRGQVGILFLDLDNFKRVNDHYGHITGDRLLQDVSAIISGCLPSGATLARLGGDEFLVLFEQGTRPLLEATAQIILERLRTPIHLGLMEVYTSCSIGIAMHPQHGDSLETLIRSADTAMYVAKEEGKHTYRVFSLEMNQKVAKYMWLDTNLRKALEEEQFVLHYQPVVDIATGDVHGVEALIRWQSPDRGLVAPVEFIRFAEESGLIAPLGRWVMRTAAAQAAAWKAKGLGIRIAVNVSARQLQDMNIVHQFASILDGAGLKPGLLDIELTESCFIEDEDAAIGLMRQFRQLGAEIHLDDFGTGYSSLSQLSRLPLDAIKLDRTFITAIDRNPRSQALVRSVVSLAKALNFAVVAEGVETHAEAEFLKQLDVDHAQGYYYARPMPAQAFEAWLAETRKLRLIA

[2] = target: T1, RpfR; experiment: PDE assay, products by anion-exchange FPLC (ResourceQ); assay type: biochemical; settings: 2 uM enzyme, 100 uM substrate, 50 mM Tris-Cl pH 7.8, 500 mM NaCl, 2 mM MgCl2, 37 °C, 180 min; product pGpG

Nc1nc2c(ncn2[C@@H]2O[C@H](COP(=O)(O)OP(=O)(O)OP(=O)(O)O)[C@@H](O)[C@H]2O)c(=O)[nH]1 [GTP]
DGC assay, products by anion-exchange FPLC (ResourceQ) [1]: Wild-type RpfR metabolized GTP as well as c-di-GMP, generating pGpG from both substrates

Nc1nc2c(ncn2[C@@H]2O[C@@H]3COP(=O)(O)O[C@H]4[C@@H](O)[C@H](n5cnc6c(=O)[nH]c(N)nc65)O[C@@H]4COP(=O)(O)O[C@H]3[C@H]2O)c(=O)[nH]1 [c-di-GMP]
PDE assay, products by anion-exchange FPLC (ResourceQ) [2]: Wild-type RpfR metabolized GTP as well as c-di-GMP, generating pGpG from both substrates
